According to PMC7765409 (International Journal of Molecular Sciences, 2020):

Assays:
[1] = tested on: lipid droplet accumulation in TG/FA-treated hiPSC-Hep; experiment: hiPSC-Hep ER-stress (TG/FA) induced lipid droplet accumulation high-content assay, integrated spot signal (BODIPY 493/503); format: cell-based, human; settings: Homo sapiens; for IC50: 10-point dose-response, pre-treatment then TG/FA 18 h, read-out: IC50, inhibition of lipid accumulation (integrated spot signal); for EC50: Figure S5 dose-response, read-out: EC50, inhibition of lipid droplet accumulation (black line: ISS)
Protocol: Cryopreserved hiPSC-derived hepatocytes (iCell Hepatocytes 2.0; Cellular Dynamics International Madison, WI) plated at a density of 36 K/well in 384-well on collagen I coated Corning Biocoat 384-well plates (BD Biosciences, 101306), were cultured to promote hepatic differentiation and maturation into hepatic-like cells as previously described. Hepatocytes were plated according to the manufacturer’s protocol in a volume of 50 µL/well using BioTek^TM Microflo^TM select dispenser (#7170011, BioTek Instruments) for high-throughput and high-content analysis assay (HT/HCA) drug discovery. After plating cells were cultured according to vendor specifications in a cell culture incubator at 37 °C, 5% CO2 for 3–4 h. Then, 40 µL spent medium was aspirated using multi-channel automated pipette handling system (Integra ViaFlo 96/384) and replaced with 40 µL (80% exchange) of fresh plating medium. Approximately 24 h post-plating 80% of medium was replaced every day thereafter. At day 5 of differentiation, 40 µL/well spent medium was replaced with maintenance medium (MM) consisting of William’s E medium (Thermo Fisher Scientific) supplemented with 0.1 µM dexamethasone and hepatocyte maintenance supplement pack (Thermo Fisher Scientific) for an additional 2–3 days before HCA. The overview of automated HT system for hiPSC-derived hepatocytes differentiation, staining and image analysis for phenotypic screening is depicted in Figure S2. Primary screening hit confirmation and dose response studies were performed on different batches of hiPSC-derived hepatocytes.
(§1) To induce hepatic triglycerides (TAG) accumulation, before staining, cells were treated with 20 μL of 2× FA mixture, consisting of different proportions of oleic acid (OA-BSA, 25 µM, Sigma, #O3008), palmitic acid (PA-BSA, 200 µM, Agilent Technologies, #102720100) and thapsigargin (TG, 1 µM, Abcam, #120286) with a total volume of 40 μL/well. The TG/FA mixture was dispensed with BioTek^TM Microflo^TM select dispenser (#7170011, BioTek Instruments) and incubated for 18 h. Next, to label TAG accumulation stored into cytoplasmic lipid droplets, upon treatment, living cells were washed two times with warm Dulbecco’s Phosphate-Buffered Saline 1X (PBS, Corning, #21-031CV) with a handheld 384-channel electronic pipette device and then incubated for 15 min with a lipophilic dye, BODIPY 493/503 (8 ug/mL Life technologies, #D3922-green), in PBS at 37 °C. BODIPY (493/503) has become the standard dye utilized by scientists to study lipid droplets in live cells. After three washes with PBS cells were fixed with 4% paraformaldehyde methanol-free (PFA, Electron Microscopy Science, #15710) in PBS for 15 min at room temperature (RT). Cell health was monitored by Hoechst 33342 (10 ug/mL, Molecular Probe, #H21492) staining in PBS for nuclear count. After TAG staining the 384-assay plates were loaded in an automated confocal microscope with Opera High Content Imaging System (PerkinElmer, Waltham, MA, USA). Dyes were excited and images were captured on the Hoechst 3342 and Alexa Fluor 488 channels and signals were collected with a long pass filter 410 and 505 nm, for nuclei and TAG, respectively, at objective 20× air objective for HCA. To capture enough cells (>600) for the analysis, eight fields per well were imaged. Hoechst 33342 fluorescence was used to identify the nuclear region and cell counts. To assess intracellular fat deposits, BODIPY 493/503 fluorescence intensity was measured inside the cytoplasm region.
For the HCA screen, compounds tested for their inhibitory effects, were used as single dose at a 10 μM final concentration of compound in DMSO in each well (0.1% DMSO) in 20 μL of maintenance medium. Prior to compound addition, 30 µL/well of medium was removed from hiPSC-Hep cells screening plates with ViaFlo ([…]). Pre-spotted 80 nL of 10 mM compound were diluted to 20 μM (0.2% DMSO) in 40 μL of maintenance medium in the source 384-well plate. […]

hiPSC-Hep = experiment: valid cell count (Hoechst nuclei) in hiPSC-Hep, multiplexed viability readout; format: cell-based; settings: Homo sapiens; for IC50: 10-point dose-response, multiplexed with lipid readout
Protocol: as §1, with “region. […]” for “region.”

CDK1 = tested on: CDK1; set-up: method as in AstraZeneca data repository; settings: median log of IC50/EC50/Ki/Kd annotations, highest value; ref AstraZeneca data repository; cited from earlier work
CDK2 = tested on: CDK2; set-up: method as in AstraZeneca data repository; settings: median log of IC50/EC50/Ki/Kd annotations, highest value; ref AstraZeneca data repository; cited from earlier work
CDK4 = tested on: CDK4; set-up: method as in AstraZeneca data repository; settings: median log of IC50/EC50/Ki/Kd annotations, highest value; ref AstraZeneca data repository; cited from earlier work

IC50 [1] | EC50 [1] | Structure (SMILES) | IC50 (hiPSC-Hep) | EC50 (hiPSC-Hep; Figure S5 dose-response, read-out: EC50, viable cell count (red line)) | pXC50 CDK1 (CDK1) | pXC50 CDK2 (CDK2) | pXC50 CDK4 (CDK4)
4.6 µM | 4.6 µM | CNC(=O)c1nn(C)c2c1C(C)(C)Cc1cnc(Nc3ccc(N4CCN(C)CC4)cc3)nc1-2 [C16, Milciclib] | 16.6 µM | 16.6 µM | 6.84 | 7.60 | 7.16
0.32 µM | 0.32 µM | Cc1ncc(-c2nc(Nc3ccc(N4CCN(C(=O)CO)CC4)cc3)ncc2F)n1C(C)C [C3] | > 30 µM |  | 7.61 | 8.24 | 7.33
